The values below are quoted from earlier work in patent EP2033945A1, “Quaternary ammonium salts” (Infineum International Limited, priority 2007, dated 2009).

For the data set the following is noted: first dissociation constant where the acid is polybasic; from CRC Handbook of Chemistry and Physics, 68th edition, page D161.

Turning to `O=C(O)c1c(O)cc(O)cc1O` [2,4,6-trihydroxybenzoic acid], the pKa is reported as 1.7.
With `O=C(O)c1ccccc1C(=O)O` [phthalic acid], the pKa is on record as 2.9.

The term pKa denotes the negative logarithm of the acid dissociation constant.
